Drawing on patent US9567302B2, “Carbamate compounds and of making and using same” (Abide Therapeutics, Inc., priority 2012, dated 2017), this text covers IC50 for twelve molecules.

Common to all, as to type: biochemical
Common to all, as to set-up: from tissue; host or cells: mouse brain membrane fraction
What all share (conditions): 30 min preincubation at 37° C.

For one assay, the target named is T1, FAAH (Mus musculus, UniProt O08914).
T1 sequence (O08914 1-579): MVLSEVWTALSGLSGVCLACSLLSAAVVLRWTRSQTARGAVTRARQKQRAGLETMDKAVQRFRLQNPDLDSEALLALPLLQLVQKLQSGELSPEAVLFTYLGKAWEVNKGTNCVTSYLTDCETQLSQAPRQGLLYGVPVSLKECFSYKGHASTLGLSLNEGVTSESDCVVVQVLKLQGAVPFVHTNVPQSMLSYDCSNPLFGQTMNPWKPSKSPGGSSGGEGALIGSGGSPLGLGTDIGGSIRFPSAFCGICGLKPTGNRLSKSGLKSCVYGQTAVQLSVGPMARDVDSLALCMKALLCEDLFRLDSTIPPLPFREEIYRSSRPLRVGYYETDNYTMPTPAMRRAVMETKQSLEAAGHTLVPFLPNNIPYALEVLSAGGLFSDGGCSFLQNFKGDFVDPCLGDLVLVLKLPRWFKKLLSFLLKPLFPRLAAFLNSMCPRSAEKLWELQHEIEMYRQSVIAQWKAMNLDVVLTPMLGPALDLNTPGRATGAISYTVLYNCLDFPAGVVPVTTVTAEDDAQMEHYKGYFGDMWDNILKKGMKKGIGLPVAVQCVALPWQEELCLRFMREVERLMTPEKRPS
The assay can be described thus: In vitro competitive activity-based protein profiling (FP-Rh), mouse FAAH. As to the method: (§1) In Vitro Competitive Activity-Based Protein Profiling.
(§2) Proteomes (mouse brain membrane fraction or cell lysates) (50 μL, 1.0 mg/ml total protein concentration) were preincubated with varying concentrations of inhibitors at 37° C. After 30 min, FP-Rh (1.0 μL, 50 μM in DMSO) was added and the mixture was incubated for another 30 min at 37° C. Reactions were quenched with SDS loading buffer (50 μL—4×) and run on SDS-PAGE.

In another assay the target is T2, MAGL (Mus musculus, UniProt O35678).
T2 sequence (O35678 1-303): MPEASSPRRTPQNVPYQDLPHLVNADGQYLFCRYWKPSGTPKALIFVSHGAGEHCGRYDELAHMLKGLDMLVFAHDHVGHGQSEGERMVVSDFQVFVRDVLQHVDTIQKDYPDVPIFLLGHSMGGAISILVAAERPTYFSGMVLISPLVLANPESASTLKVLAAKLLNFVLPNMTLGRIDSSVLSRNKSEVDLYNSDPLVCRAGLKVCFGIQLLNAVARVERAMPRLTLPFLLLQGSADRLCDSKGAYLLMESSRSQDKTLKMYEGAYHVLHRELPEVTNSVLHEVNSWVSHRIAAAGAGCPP
The assay can be described thus: In vitro competitive activity-based protein profiling (FP-Rh), mouse MAGL. As to the method:
as §1, §2

The next assay addresses T3, ABHD6 (Mus musculus, UniProt Q8R2Y0).
T3 sequence (Q8R2Y0 1-336): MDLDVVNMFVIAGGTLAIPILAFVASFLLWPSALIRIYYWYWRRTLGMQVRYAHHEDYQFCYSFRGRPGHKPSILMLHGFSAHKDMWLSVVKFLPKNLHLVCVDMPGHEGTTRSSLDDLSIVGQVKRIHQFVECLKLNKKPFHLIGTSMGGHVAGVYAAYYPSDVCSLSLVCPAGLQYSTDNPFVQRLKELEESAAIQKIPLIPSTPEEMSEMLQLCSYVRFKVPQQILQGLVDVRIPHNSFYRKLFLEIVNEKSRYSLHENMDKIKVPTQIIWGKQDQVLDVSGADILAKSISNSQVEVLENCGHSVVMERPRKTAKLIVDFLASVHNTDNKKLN
Kind of assay: In vitro competitive activity-based protein profiling (FP-Rh), mouse ABHD6. As for the experimental part: as §1, §2

`CC1(C)CC(=O)N(OC(=O)N2CCN(C(c3ccc(Cl)cc3)c3ccc(Cl)cc3)CC2)C1=O` [Example 42, 3,3-Dimethyl-2,5-dioxopyrrolidin-1-yl 4-(bis(4-chlorophenyl)methyl)piperazine-1-carboxylate]: the IC50 was more than 10000 nM at FAAH (Table 1, mouse proteome); 1000 to 10000 nM on MAGL (Table 1, mouse proteome); 1000 to 10000 nM on ABHD6 (Table 1, mouse proteome).
Turning to `Cn1nc(-c2ccccc2)cc1CN1CCN(C(=O)ON2C(=O)CCC2=O)CC1` [Example 139, 2,5-dioxopyrrolidin-1-yl 4-((1-methyl-3-phenyl-1H-pyrazol-5-yl)methyl)piperazine-1-carboxylate], the IC50 at FAAH (Table 2, mouse proteome) was more than 10000 nM; at MAGL (Table 2, mouse proteome), 100 to 1000 nM; on ABHD6 (Table 2, mouse proteome) it was 100 to 1000 nM.
Regarding `Cc1cc(-c2ccccc2)ccc1CN1CCN(C(=O)ON2C(=O)CCC2=O)CC1` [Example 165, 2,5-Dioxopyrrolidin-1-yl 4-[(2-methyl-4-phenylphenyl)methyl]piperazine-1-carboxylate], the IC50 on FAAH (Table 2, mouse proteome) was 1000 to 10000 nM; at MAGL (Table 2, mouse proteome), 100 to 1000 nM; at ABHD6 (Table 2, mouse proteome), 100 to 1000 nM.
On to `O=C(ON1C(=O)CCC1=O)N1CCN(Cc2ccc(Cl)cc2N2CCOCC2)CC1` [Example 69, 2,5-Dioxopyrrolidin-1-yl 4-(4-chloro-2-morpholinobenzyl)piperazine-1-carboxylate], for which the IC50 on FAAH (Table 2, mouse proteome) was 1000 to 10000 nM; on MAGL (Table 2, mouse proteome), less than 100 nM; at ABHD6 (Table 2, mouse proteome) it was 100 to 1000 nM.
On the same counts, the results for `O=C(ON1C(=O)CCC1=O)N1CCN(Cc2ccc(-c3ccccc3)cc2C(=O)N2CCCC2)CC1` [Example 191, 2,5-Dioxopyrrolidin-1-yl 4-{[4-phenyl-2-(pyrrolidine-1-carbonyl)phenyl]methyl}piperazine-1-carboxylate] are more than 10000 nM, 100 to 1000 nM and 1000 to 10000 nM.
For `O=C(ON1C(=O)CCC1=O)N1CCC(Cc2ccccc2)CC1` [Example 21, 2,5-Dioxopyrrolidin-1-yl 4-benzylpiperidine-1-carboxylate], the IC50 lay within 1000 to 10000 nM on FAAH (Table 1, mouse proteome); 100 to 1000 nM on MAGL (Table 1, mouse proteome); 100 to 1000 nM on ABHD6 (Table 1, mouse proteome).
As to `Cc1c(CN2CCN(C(=O)ON3C(=O)CCC3=O)CC2)cccc1N1CCCC1` [Example 123, 2,5-Dioxopyrrolidin-1-yl 4-(2-methyl-3-(pyrrolidin-1-yl)benzyl)piperazine-1-carboxylate], the IC50 is more than 10000 nM on FAAH (Table 2, mouse proteome); less than 100 nM on MAGL (Table 2, mouse proteome); 100 to 1000 nM at ABHD6 (Table 2, mouse proteome).
Turning to `C#CCCCCNC(=O)ON1C(=O)CCC1=O` [Example 28, 2,5-Dioxopyrrolidin-1-yl N-(hex-5-yn-1-yl)carbamate], the IC50 at FAAH (Table 1, mouse proteome) is 1000 to 10000 nM; on MAGL (Table 1, mouse proteome) it was more than 10000 nM; on ABHD6 (Table 1, mouse proteome), 1000 to 10000 nM.
On to `CC(=O)NC1CCN(c2cc(Cl)ccc2CN2CCN(C(=O)ON3C(=O)CCC3=O)CC2)C1` (stereo not drawn) [Example 85, 2,5-Dioxopyrrolidin-1-yl 4-(2-(3-acetamidopyrrolidin-1-yl)-4-chlorobenzyl)piperazine-1-carboxylate], for which the IC50 at FAAH (Table 2, mouse proteome) is more than 10000 nM; on MAGL (Table 2, mouse proteome) it was less than 100 nM; at ABHD6 (Table 2, mouse proteome), 1000 to 10000 nM.
Turning to `O=C(ON1C(=O)CCC1=O)N1CCN(Cc2cnc3ccc(Cl)cn23)CC1` [Example 145, 2,5-Dioxopyrrolidin-1-yl 4-((6-chloroimidazo[1,2-a]pyridin-3-yl)methyl)piperazine-1-carboxylate], the IC50 at FAAH (Table 2, mouse proteome) is more than 10000 nM; on MAGL (Table 2, mouse proteome), 1000 to 10000 nM; at ABHD6 (Table 2, mouse proteome), 1000 to 10000 nM.
Consider `Cc1nc2ccc(Cl)cn2c1CN1CCN(C(=O)ON2C(=O)CCC2=O)CC1` [Example 144], for which the IC50 on FAAH (Table 2, mouse proteome) is more than 10000 nM; on MAGL (Table 2, mouse proteome), 1000 to 10000 nM; at ABHD6 (Table 2, mouse proteome), 100 to 1000 nM.
Taken in the same sequence, the figures for `O=C(ON1C(=O)CCC1=O)N1CCN(Cc2ccc(N3CCOCC3)c(Cl)c2)CC1` [Example 101, 2,5-dioxopyrrolidin-1-yl 4-(3-chloro-4-morpholinobenzyl)piperazine-1-carboxylate] were more than 10000 nM, 1000 to 10000 nM and 100 to 1000 nM.
